Experimental data from patent US11771729B2, “Maca extract and use thereof” (KAOHSIUNG MEDICAL UNIVERSITY, priority 2021, dated 2023).
Marks after values point to notes of the source that are not given here.

Assays:
[1] = test system: human CD34-positive endothelial progenitor cells (EPC); test: Pro-angiogenic test: EPC cell growth; type: cell-based; conditions: 50 μM of each isolated compound, 48 hours, mean±SEM
Method: Endothelial cell culture: Isolation and culture of human CD34-positive endothelial progenitor cells (EPC) were performed using conventional methods (Chen et al., 2018); human umbilical vein endothelial cells (HUVECs) were purchased from Promo Cell (Heidelberg, Germany); and EPCs and HUVECs were maintained in MV2 medium according to a known protocol (Chung et al., 2013).
Measurement of cell growth: EPCs and HUVECs were cultured overnight at a density of 5×10^3 cells per well in a 96-well plate, and then, in the presence of the test specimen (that is, maca extract), the original medium was replaced with MV2 minimal medium and incubated for 48 hours. The measurements on EPC cell growth were as described in Yang et al., 2019.
The results are shown in Table 1 as below, in which corresponding results are indicated as mean±SEM (the test was repeated 3 times as a whole), wherein, compared to the control group (DSMO), * denotes p<0.05, ** denotes p<0.01, *** denotes p<0.001; and - denotes being untested.

human neutrophil [2] = test: Anti-neutrophil inflammation test: superoxide anion generation; type: cell-based; conditions: isolated compounds (10 μM) and positive controls 10 μM, fMLF/CB-activated neutrophils, mean±SEM; for inhibition at 10 µM: Homo sapiens, Neutrophil, read-out: Inhibition rate (%) Superoxide anion generation
Method: (§1) Isolation of human neutrophil: According to the standard scheme of […] sedimentation, neutrophils was obtained from peripheral blood, and then, the neutrophils were purified by centrifugation and erythrocyte hypotonic degradation in a Ficoll-Hypaque gradient; and then, it was confirmed by the trypan blue exclusion test that the purified neutrophils contained more than 98% live cells, and the purified neutrophils were suspended in HBSS without calcium at 4° C. (Yang et al., 2013) prior to the test.
The level of superoxide anion generation by neutrophil activation was measured and determined based on the ferrocytochrome c reduction method according to Yang et al., 2013. In other words, human neutrophil cells (6×10^5 cells/mL) were mixed with 0.6 mg/mL of ferrocytochrome c and 1 mmol/L of CaCl at 37° C., and then the cells were treated with the test specimens having different concentrations (that is, maca extract) or DMSO (0.1% as control) for 5 minutes; thereafter, 10 minutes before activation with 100 nM of fMLF, the cells were incubated with cytochalasin B (1 μg/mL) for 3 minutes, changes in absorbance according to the decrease in ferrocytochrome c at a wavelength of […] with continuous stirring were continuously monitored using a spectrophotometer, and reactions were calculated with and without superoxide dismutase (SOD, 100 U/mL) with dividing by the extinction coefficient of the decreased ferrocytochrome c (21.1 mM^−1 cm^−1) reduction, thereby obtaining the difference value.

human neutrophil [3] = test: Anti-neutrophil inflammation test: elastase release; type: cell-based; conditions: isolated compounds (10 μM) and positive controls 10 μM, fMLF/CB-activated neutrophils, mean±SEM; for inhibition at 10 µM: Homo sapiens, Neutrophil, read-out: Inhibition rate (%) Elastase release
Method: as §1
The elastase release was used to measure degranulation of azurophilic granules in activated neutrophils (Yang et al., 2013); and the measurement was performed using methoxysuccinyl-Ala-Ala-Pro-Val-p-nitroaniline as an elastase matrix. At 37° C., neutrophils (6×10^5 cells/mL) were added to a mixture of matrix (100 μmol/L) and CaCl2 (1 mmol/L), and treated with the test specimens having different concentrations (that is, maca extract) or DMSO (0.1% as control) for 5 minutes, and then the cells were stimulated by using fMLF (100 nM)/CB (0.5 μg/mL), and changes in absorbance at the 405 nm wavelength were continuously monitored to measure the release of elastase, in which genistein and LY294002 were used as positive controls. The corresponding results are indicated as mean±SEM (the test was repeated 3 or 4 times), in which * denotes p<0.05, ** denotes p<0.01, *** denotes p<0.001; and - denotes being untested.

RBL-2H3 cells [4] = test: Anti-allergy test: A23187-induced β-hexosaminidase release; type: cell-based; conditions: for A23187-induced β-hexosaminidase release Inhibition rate (%): Table 4, isolated compounds, concentration not given (values equal 100 μM column of Table 6)
Method: (§2) Equivalently divided supernatants (50 μL) of control wells and experimental wells were incubated with an equal volume (50 μL) of […] p-NAG prepared in 0.1 M citrate buffer (pH 4.5), in which the buffer is formed as a matrix of released β-hexosaminidase; the reaction, after 1 hour incubation at 37° C., was stopped by adding 100 μL of termination buffer (0.1M Na2/NaHCO3, pH 10.0), and then, the absorbance at a wavelength of 405 nm was measured with a microplate reader. The percentage of inhibiting RBL-2H3 cells from releasing β-hexosaminidase was calculated as the percentage of control (untreated stimulated cells), and azelastine (20 μM) was used as a positive control. The test results are shown in Tables 4 to 6 below, and the corresponding results are indicated as mean±SEM (the test was repeated 3 times), wherein * denotes p<0.05, ** denotes p<0.01, *** denotes p<0.001; - denotes being untested; and N/A denotes that the specimen forms mycelium added to the medium, and accordingly, the results cannot be proven.

RBL-2H3 cells [5] = test: Anti-allergy test: antigen-induced β-hexosaminidase release; type: cell-based; conditions: for Antigen-induced β-hexosaminidase release Inhibition rate (%): Table 4, isolated compounds, concentration not given
Method: as §2

RBL-2H3 cells [6] = test: Cell viability of RBL-2H3 cells (MTT); conditions: for Viability of RBL-2H3 cells at 200 μg/ml: Table 6, isolated compounds, head prints 200 μg/ml
Method: Cells were cultured using DMEM medium supplemented with 10% FBS, and additional 100 U/mL penicillin and 100 μg/mL streptomycin. The cells were cultured in 10 cm Petri dishes in a 5% CO2 incubator at 37° C., the cells were secondary cultured in 80% confluent trypsin, and then seeded on culture plates at a density of 2×10^5 cells/mL for secretion measurement.
Measurement on cell viability: RBL-2H3 cells were seeded in a 96-well plate at a concentration of 2×10^4 cells/well overnight, specimens having different concentrations (that is, maca extract, dissolved in DMSO) or untreated controls (1% DMSO in Tyrode buffer; 135 mM NaCl, 5 mM KCl, 1.8 mM CaCl, 1.0 mM MgCl2, 5.6 mM glucose, 20 mM HEPES and 1 mg/ml BSA, pH 7.4) were used to treat the cells, the media was removed from the wells after incubation at 37° C., 5% CO2, and an MTT solution (5 mg/mL) stock solution was diluted 1:10 in the medium and then added to the wells (100 μL per well); Thereafter, the cells were incubated at 37° C., 5% CO2 for 1 hours, the medium was removed, the formed Formazan crystals (which can be formed only in normal healthy cells) were dissolved in 100 μL DMSO, and the absorbance at 574 nm wavelength was measured using a microplate reader in which the plates were gently shaked before the measurement. Cell viability values for the specimens were calculated and indicated as a percentage (%) of the control groups (untreated cells).

O=Cc1ccc(CO)n1Cc1ccccc1 [Compound 6, 5-hydroxymethyl-1-(benzyl)-2-aldehyde pyrrole]
Cell growth rate (%) EPC [1]: 104 ± 4%
Inhibition rate (%) Superoxide anion generation (human neutrophil [2]): 5.44 ± 2.18%
Inhibition rate (%) Elastase release (human neutrophil [3]): 2.69 ± 0.49** %
Percentage of inhibiting A23187-induced β-hexosaminidase release (%) 10 μM/mL (RBL-2H3 cells [4]): 5.7 ± 1.0%
Percentage of inhibiting A23187-induced β-hexosaminidase release (%) 100 μM/mL (RBL-2H3 cells [4]): 9.7 ± 2.2%
Percentage of inhibiting A23187-induced β-hexosaminidase release (%) 500 μM/mL (RBL-2H3 cells [4]): 26.0 ± 2.4%***
A23187-induced β-hexosaminidase release Inhibition rate (%) (RBL-2H3 cells [4]): 9.7 ± 2.2%
Percentage of inhibiting antigen-induced β-hexosaminidase release (%) 10 μM/mL (RBL-2H3 cells [5]): 10.3 ± 3.9%
Percentage of inhibiting antigen-induced β-hexosaminidase release (%) 100 μM/mL (RBL-2H3 cells [5]): 3.7 ± 3.0%
Percentage of inhibiting antigen-induced β-hexosaminidase release (%) 500 μM/mL (RBL-2H3 cells [5]): 0.3 ± 0.3%
Antigen-induced β-hexosaminidase release Inhibition rate (%) (RBL-2H3 cells [5]): 3.7 ± 3.0%
Viability of RBL-2H3 cells at 200 μg/ml (RBL-2H3 cells [6]): 100.0%

COc1cccc(Cn2c(C=O)ccc2CO)c1 [Compound 4, 5-hydroxymethyl-1-(m-methoxybenzyl)-2-aldehyde pyrrole]
Cell growth rate (%) EPC [1]: 103 ± 1%
Inhibition rate (%) Superoxide anion generation (human neutrophil [2]): 1.05 ± 0.78%
Inhibition rate (%) Elastase release (human neutrophil [3]): 0.00 ± 0.59%
Percentage of inhibiting A23187-induced β-hexosaminidase release (%) 10 μM/mL (RBL-2H3 cells [4]): 8.3 ± 1.0%
Percentage of inhibiting A23187-induced β-hexosaminidase release (%) 100 μM/mL (RBL-2H3 cells [4]): 6.7 ± 1.4%
A23187-induced β-hexosaminidase release Inhibition rate (%) (RBL-2H3 cells [4]): 6.7 ± 1.4%
Percentage of inhibiting antigen-induced β-hexosaminidase release (%) 10 μM/mL (RBL-2H3 cells [5]): 16.7 ± 6.6%*
Percentage of inhibiting antigen-induced β-hexosaminidase release (%) 100 μM/mL (RBL-2H3 cells [5]): 10.0 ± 4.1%
Antigen-induced β-hexosaminidase release Inhibition rate (%) (RBL-2H3 cells [5]): 10.0 ± 4.1%
Viability of RBL-2H3 cells at 200 μg/ml (RBL-2H3 cells [6]): 96.0%

CN1CCCC(n2nc(Cc3ccc(Cl)cc3)c3ccccc3c2=O)CC1 (stereo not drawn) [Azelastine, reference compound]
inhibition at 20 µM (RBL-2H3 cells [4]; RBL-2H3, azelastine 20 μM, positive control, read-out: Percentage of inhibiting A23187-induced β-hexosaminidase release (%)): 47.7 ± 3.2%
inhibition at 20 µM (RBL-2H3 cells [5]; RBL-2H3, azelastine 20 μM, positive control, read-out: Percentage of inhibiting antigen-induced β-hexosaminidase release (%)): 54.3 ± 1.8%
Viability of RBL-2H3 cells (RBL-2H3 cells [6]; azelastine 20 μM): 88.0%

O=c1cc(N2CCOCC2)oc2c(-c3ccccc3)cccc12 [LY294002, reference compound]
inhibition at 10 µM (human neutrophil [2]): 95.3 ± 2.78%
inhibition at 10 µM (human neutrophil [3]): 72.8 ± 4.03%

N#CCc1cccc(O)c1 [Compound 8, 3-hydroxy-1-cyanomethylbenzene]
Cell growth rate (%) EPC [1]: 103 ± 2%
inhibition at 10 µM (human neutrophil [2]): 0.45 ± 4.35%
inhibition at 10 µM (human neutrophil [3]): 1.78 ± 2.29%
inhibition at 10 µM (RBL-2H3 cells [4]; RBL-2H3, read-out: Percentage of inhibiting A23187-induced β-hexosaminidase release (%) 10 μM/mL): 11 ± 0.8%
inhibition at 100 µM (RBL-2H3 cells [4]; RBL-2H3, read-out: Percentage of inhibiting A23187-induced β-hexosaminidase release (%) 100 μM/mL): 8.3 ± 3.4%
inhibition at 500 µM (RBL-2H3 cells [4]; RBL-2H3, read-out: Percentage of inhibiting A23187-induced β-hexosaminidase release (%) 500 μM/mL): 11.7 ± 1.5%
inhibition at 10 µM (RBL-2H3 cells [5]; RBL-2H3, read-out: Percentage of inhibiting antigen-induced β-hexosaminidase release (%) 10 μM/mL): 13.7 ± 3.9%
inhibition at 100 µM (RBL-2H3 cells [5]; RBL-2H3, read-out: Percentage of inhibiting antigen-induced β-hexosaminidase release (%) 100 μM/mL): 13 ± 2.6%
inhibition at 500 µM (RBL-2H3 cells [5]; RBL-2H3, read-out: Percentage of inhibiting antigen-induced β-hexosaminidase release (%) 500 μM/mL): 4 ± 3.3%
Viability of RBL-2H3 cells at 200 μg/ml (RBL-2H3 cells [6]): 97.7%

CC(=O)[C@@H]1CCC(=O)N1Cc1ccccc1 [Compound 1, (5S)-acetyl-1-benzylpyrrolidine-2-ketone]
Cell growth rate (%) EPC [1]: 99 ± 1%
Inhibition rate (%) Superoxide anion generation (human neutrophil [2]): 7.50 ± 1.96 %
Inhibition rate (%) Elastase release (human neutrophil [3]): 1.59 ± 0.99%
Percentage of inhibiting A23187-induced β-hexosaminidase release (%) 10 μM/mL (RBL-2H3 cells [4]): 2.7 ± 1.2%
Percentage of inhibiting A23187-induced β-hexosaminidase release (%) 100 μM/mL (RBL-2H3 cells [4]): 4.0 ± 1.7%
Percentage of inhibiting A23187-induced β-hexosaminidase release (%) 500 μM/mL (RBL-2H3 cells [4]): 38.0±3.4%
Percentage of inhibiting antigen-induced β-hexosaminidase release (%) 10 μM/mL (RBL-2H3 cells [5]): 3.7 ± 1.9%
Percentage of inhibiting antigen-induced β-hexosaminidase release (%) 100 μM/mL (RBL-2H3 cells [5]): 5.7 ± 2.2%
Percentage of inhibiting antigen-induced β-hexosaminidase release (%) 500 μM/mL (RBL-2H3 cells [5]): 9.0 ± 3.7%
Antigen-induced β-hexosaminidase release Inhibition rate (%) (RBL-2H3 cells [5]): 9.0 ± 3.7%
Viability of RBL-2H3 cells at 200 μg/ml (RBL-2H3 cells [6]): 95.3%

O=c1c(-c2ccc(O)cc2)coc2cc(O)cc(O)c12 [Genistein, reference compound]
inhibition at 10 µM (human neutrophil [2]): 93.37 ± 0.93%
inhibition at 10 µM (human neutrophil [3]): 44.2 ± 3.72%

COCc1ccc(C=O)n1Cc1ccccc1 [Compound 5, 5-methoxymethyl-1-(benzyl)-2-aldehyde pyrrole]
Cell growth rate (%) EPC [1]: 99 ± 5%
Inhibition rate (%) Superoxide anion generation (human neutrophil [2]): 21.59±5.35%
Inhibition rate (%) Elastase release (human neutrophil [3]): 3.33 ± 0.50** %
Percentage of inhibiting A23187-induced β-hexosaminidase release (%) 10 μM/mL (RBL-2H3 cells [4]): 21.3 ± 3.3%***
Percentage of inhibiting A23187-induced β-hexosaminidase release (%) 100 μM/mL (RBL-2H3 cells [4]): 51.3 ± 4.6%***
Percentage of inhibiting A23187-induced β-hexosaminidase release (%) 500 μM/mL (RBL-2H3 cells [4]): 57.7 ± 4.3%***
A23187-induced β-hexosaminidase release Inhibition rate (%) (RBL-2H3 cells [4]): 51.3 ± 4.6*** %
IC50 (RBL-2H3 cells [4]; Table 6, isolated compounds): 96.1 µM
Percentage of inhibiting antigen-induced β-hexosaminidase release (%) 10 μM/mL (RBL-2H3 cells [5]): 9.0 ± 4.8%
Percentage of inhibiting antigen-induced β-hexosaminidase release (%) 100 μM/mL (RBL-2H3 cells [5]): 11.7 ± 5.9%
Percentage of inhibiting antigen-induced β-hexosaminidase release (%) 500 μM/mL (RBL-2H3 cells [5]): 8.3 ± 3.5%
Antigen-induced β-hexosaminidase release Inhibition rate (%) (RBL-2H3 cells [5]): 11.7 ± 5.9%
Viability of RBL-2H3 cells at 200 μg/ml (RBL-2H3 cells [6]): 94.0%

COCc1ccc(C=O)n1Cc1cccc(OC)c1 [Compound 3, 5-methoxymethyl-1-(m-methoxybenzyl)-2-aldehyde pyrrole]
Percentage of inhibiting A23187-induced β-hexosaminidase release (%) 10 μM/mL (RBL-2H3 cells [4]): 3.7 ± 1.5%
Percentage of inhibiting A23187-induced β-hexosaminidase release (%) 100 μM/mL (RBL-2H3 cells [4]): 4.7 ± 0.7%
Percentage of inhibiting A23187-induced β-hexosaminidase release (%) 500 μM/mL (RBL-2H3 cells [4]): 12.7 ± 0.7%**
A23187-induced β-hexosaminidase release Inhibition rate (%) (RBL-2H3 cells [4]): 4.7 ± 0.7%
Percentage of inhibiting antigen-induced β-hexosaminidase release (%) 10 μM/mL (RBL-2H3 cells [5]): 13.7 ± 1.9%
Percentage of inhibiting antigen-induced β-hexosaminidase release (%) 100 μM/mL (RBL-2H3 cells [5]): 10.7 ± 3.3%
Percentage of inhibiting antigen-induced β-hexosaminidase release (%) 500 μM/mL (RBL-2H3 cells [5]): 5.0 ± 4.1%
Antigen-induced β-hexosaminidase release Inhibition rate (%) (RBL-2H3 cells [5]): 10.7 ± 3.3%
Viability of RBL-2H3 cells at 200 μg/ml (RBL-2H3 cells [6]): 95.0%
